Converted amounts (≈) assume the structure as drawn.
Experiments:
Plasmodium falciparum [1] = assay: Antimalarial activity against multi-drug-resistant Plasmodium falciparum W2 infected in human type A+ erythrocytes assessed as growth inhibition after 72 hrs by SYBR Green I assay; type: functional, organism-based; conditions: W2, 72 h
Plasmodium falciparum [2] = assay: Antimalarial activity against multi-drug-resistant Plasmodium falciparum TM90-C2B infected in human type A+ erythrocytes assessed as growth inhibition after 72 hrs by SYBR Green I assay; type: functional, organism-based
[3] = Resistance index, ratio of EC50 for multi-drug-resistant Plasmodium falciparum TM90-C2B infected in human type A+ erythrocytes to EC50 for multi-drug-resistant Plasmodium falciparum W2 infected in human type A+ erythrocytes; type: functional
J774 = assay: Cytotoxicity against mouse J774 cells after 72 hrs by CellTiter 96 assay; type: cell-based; conditions: J774, 72 h
[4] = Cytotoxicity index, ratio of EC50 for mouse J774 cells to EC50 for multi-drug-resistant Plasmodium falciparum TM90-C2B infected in human type A+ erythrocytes; type: toxicity, cell-based; conditions: read-out: Ratio EC50
[5] = Intrinsic clearance in human liver microsomes at 1 uM by LC-MS analysis; type: ADME; conditions: liver microsomes, read-out: CLH
[6] = Aqueous solubility of the compound at pH 7.4; type: physicochemical; conditions: buffer
Plasmodium berghei [7] = assay: Antimalarial activity against Plasmodium berghei ANKA expressing GFP infected in Balb/c mouse assessed as inhibition of parasitemia at 50 mg/kg, po qd administered as single dose on day 3 to 5 of exposure measured on day 6 post exposure by in vivo thomson test relative to control; type: functional
Plasmodium berghei [8] = assay: Antimalarial activity against Plasmodium berghei ANKA expressing GFP infected in Balb/c mouse assessed as inhibition of parasitemia at 10 mg/kg, po qd administered as single dose on day 3 to 5 of exposure measured on day 6 post exposure by in vivo thomson test relative to control; type: functional
Plasmodium berghei [9] = assay: Antimalarial activity against Plasmodium berghei ANKA expressing GFP infected in Balb/c mouse assessed as mouse survival at 50 mg/kg, po qd administered as single dose on day 3 to 5 of exposure measured on day 6 post exposure by in vivo thomson test relative to control; type: functional
Plasmodium berghei [10] = assay: Antimalarial activity against Plasmodium berghei ANKA expressing GFP infected in Balb/c mouse assessed as mouse survival at 10 mg/kg, po qd administered as single dose on day 3 to 5 of exposure measured on day 6 post exposure by in vivo thomson test relative to control; type: functional
Plasmodium berghei [11] = assay: Antimalarial activity against Plasmodium berghei ANKA expressing GFP infected in Balb/c mouse assessed as mouse cured from disease at 50 mg/kg, po qd administered as single dose on day 3 to 5 of exposure measured on day 30 post exposure by in vivo thomson test relative to control; type: functional
Plasmodium berghei [12] = assay: Antimalarial activity against Plasmodium berghei ANKA expressing GFP infected in Balb/c mouse assessed as mouse cured from disease at 10 mg/kg, po qd administered as single dose on day 3 to 5 of exposure measured on day 30 post exposure by in vivo thomson test relative to control; type: functional
[13] = octanol/water, pH 7.4
in vitro = conditions: pampa, pH 7.4
Description: (§1) Effective permeability of the compound at pH 7.4 by PAMPA

Plasmodium berghei [14] = assay: Antimalarial activity against Plasmodium berghei ANKA expressing GFP infected in Balb/c mouse assessed as inhibition of parasitemia at 3 mg/kg, po qd administered as single dose on day 3 to 5 of exposure measured on day 6 post exposure by in vivo thomson test relative to control; type: functional
Plasmodium berghei [15] = assay: Antimalarial activity against Plasmodium berghei ANKA expressing GFP infected in Balb/c mouse assessed as inhibition of parasitemia at 1 mg/kg, po qd administered as single dose on day 3 to 5 of exposure measured on day 6 post exposure by in vivo thomson test relative to control; type: functional
Plasmodium berghei [16] = assay: Antimalarial activity against Plasmodium berghei ANKA expressing GFP infected in Balb/c mouse assessed as mouse survival at 3 mg/kg, po qd administered as single dose on day 3 to 5 of exposure measured on day 6 post exposure by in vivo thomson test relative to control; type: functional
Plasmodium berghei [17] = assay: Antimalarial activity against Plasmodium berghei ANKA expressing GFP infected in Balb/c mouse assessed as mouse survival at 1 mg/kg, po qd administered as single dose on day 3 to 5 of exposure measured on day 6 post exposure by in vivo thomson test relative to control; type: functional
Plasmodium berghei [18] = assay: Antimalarial activity against Plasmodium berghei ANKA expressing GFP infected in Balb/c mouse assessed as mouse cured from disease at 3 mg/kg, po qd administered as single dose on day 3 to 5 of exposure measured on day 30 post exposure by in vivo thomson test relative to control; type: functional
Rattus norvegicus = assay: Half life in Sprague-Dawley rat at 0.15 mg/kg, iv; type: ADME, organism-based; design: dose 0.15 mg/kg, route intravenous; conditions: in vivo
[19] = Plasma clearance in Sprague-Dawley rat at 0.15 mg/kg, iv; type: ADME, organism-based; design: dose 0.15 mg/kg, route intravenous
[20] = Volume of distribution in Sprague-Dawley rat at 0.15 mg/kg, iv; type: ADME, organism-based; design: dose 0.15 mg/kg, route intravenous; conditions: in vivo
[21] = Apparent oral bioavailability in Sprague-Dawley rat at 10 mg/kg; type: ADME, organism-based; conditions: in vivo
Plasmodium berghei [22] = assay: Antimalarial activity against Plasmodium berghei ANKA expressing GFP infected in Balb/c mouse assessed as inhibition of parasitemia at 0.3 mg/kg, po qd administered as single dose on day 3 to 5 of exposure measured on day 6 post exposure by in vivo thomson test relative to control; type: functional
Plasmodium berghei [23] = assay: Antimalarial activity against Plasmodium berghei ANKA expressing GFP infected in Balb/c mouse assessed as mouse survival at 0.3 mg/kg, po qd administered as single dose on day 3 to 5 of exposure measured on day 6 post exposure by in vivo thomson test relative to control; type: functional
[24] = pampa, pH 7.4
Description: as §1

Liver = assay: Half life in mouse liver microsomes at 1 uM by LC-MS analysis; type: ADME
Plasmodium berghei [25] = assay: Antimalarial activity against Plasmodium berghei ANKA expressing GFP infected in Balb/c mouse assessed as mouse survival at 30 mg/kg, po qd administered as single dose on day 3 to 5 of exposure measured on day 6 post exposure by in vivo thomson test relative to control; type: functional

| Compound | EC50 (Plasmodium falciparum [1]) | EC50 (Plasmodium falciparum [2]) | Ratio EC50 [3] | EC50 (J774) | selectivity ratio [4] | solubility kinetic [6] | inhibition in vivo at 10 mg/kg (Plasmodium berghei [8]) | survival time at 10 mg/kg (Plasmodium berghei [10]) | Activity (Plasmodium berghei [12]) | logD [13] | inhibition in vivo at 3 mg/kg (Plasmodium berghei [14]) | inhibition in vivo at 1 mg/kg (Plasmodium berghei [15]) | survival time at 3 mg/kg (Plasmodium berghei [16]) | survival at 1 mg/kg (Plasmodium berghei [17]) | Activity (Plasmodium berghei [18]) | further results |
| --- | --- | --- | --- | --- | --- | --- | --- | --- | --- | --- | --- | --- | --- | --- | --- | --- |
| COc1cc2[nH]c(C)c(-c3cccnc3)c(=O)c2cc1Cl | 748 nM | 120 nM | 0.16 | > 33300 nM | > 277 |  |  |  |  |  |  |  |  |  |  | microsomal CLint at 1 µM [5]: 15 µL/min/mg |
| COc1cc2[nH]c(C)c(-c3ccc(Cl)cc3C)c(=O)c2cc1Cl | 14.2 nM |  |  | > 28700 nM |  | < 2 µM | 95% | 5 days | 0% | 2.9 |  |  |  |  |  | inhibition in vivo at 50 mg/kg (Plasmodium berghei [7]): 71%; mouse survival time at 50 mg/kg (Plasmodium berghei [9]): 5 days; Activity (Plasmodium berghei [11]): 0%; Papp (in vitro): 369 ×10⁻⁶ cm/s |
| COc1cc2[nH]c(C)c(-c3ccc(Oc4ccc(OC(F)(F)F)cc4)cc3F)c(=O)c2cc1Cl | 3.74 nM | 15.2 nM | 4.07 | > 20200 nM | > 1330 | < 2 µM | 99.5% | 23 days | 100% | 3.4 | 99.3% | 99.3% | 23 days | 23 days | 100% | inhibition in vivo at 50 mg/kg (Plasmodium berghei [7]): 99.2%; mouse survival time at 50 mg/kg (Plasmodium berghei [9]): 23 days; Activity (Plasmodium berghei [11]): 100%; t1/2 (Rattus norvegicus): 32 h; clearance [19]: 0.3 mL/min/kg; Vd [20]: 0.7 L/kg; bioavailability [21]: 14% |
| COc1cc2[nH]c(C)c(-c3ccc(-c4ccc(C(F)(F)F)cc4F)nc3)c(=O)c2cc1Cl | 0.602 nM | 1.06 nM | 1.76 | > 21600 nM | > 20400 | 6 to 12 µM (≈ 2.78 to 5.55 µg/mL) | 95.2% | 23 days | 100% | 3.7 | 96.3% | 94.5% | 23 days | 23 days | 100% | inhibition in vivo at 0.3 mg/kg (Plasmodium berghei [22]): 94.3%; survival at 0.3 mg/kg (Plasmodium berghei [23]): 23 days; Peff [24]: 1070 ×10⁻⁶ cm/s |
| COc1cc2[nH]c(C)c(-c3ccc(-c4ccc(OC(F)(F)F)cc4)nc3)c(=O)c2cc1Cl | 0.686 nM | 2.03 nM | 2.95 | > 21700 nM | > 10700 | 6 to 12 µM (≈ 2.77 to 5.53 µg/mL) | 97.3% | 23 days | 100% | 3.7 | 97.3% | 95.8% | 23 days | 23 days | 80% | inhibition in vivo at 0.3 mg/kg (Plasmodium berghei [22]): 93.9%; survival at 0.3 mg/kg (Plasmodium berghei [23]): 23 days |
| CCCCCCCc1c(C)nc2cc(OC)ccc2c1O |  |  |  |  |  |  |  |  |  |  |  |  |  |  |  | t1/2 (Liver): 7.9 min |
| CCN(CC)Cc1cc(Nc2ccnc3cc(Cl)ccc23)ccc1O [AMODIAQUINE] |  |  |  |  |  |  |  |  |  |  |  |  |  |  |  | survival at 30 mg/kg (Plasmodium berghei [25]): 23 days |
